In this assay the target is T1, KCNQ2/3 channels (Homo sapiens, UniProt O43525+O43526).
T1 construct: expressed in transfected cells
The assay is described as follows: Fluorescence assay using a voltage sensitive dye (fluorimetry). The assay is classed as cell-based. The conditions noted are these: CHO-K1 cells expressing KCNQ2/3; for Emax: CHO-K1, plateau effect relative to saturated retigabine (50 μM) = 100%, negative values = antagonistic, read-out: Fluorimetry % efficacy (retigabine = 100%); for EC50: IC50 where % efficacy is negative, read-out: Fluorimetry EC50/IC50. From the text: Method I. Fluorescence Assay Using a Voltage Sensitive Dye (Fluorimetry)
These voltage-sensitive dyes are fluorescent dyes and, therefore, are forming the link between cell potential influenced by KCNQ modulation and fluorescence intensity. A KCNQ agonist leads to an opening of the channel, potassium and dye efflux, a following hyperpolarization and a reduction of the inner fluorescence intensity in a kinetic protocol. If applying an ion jump by KCl depolarization, KCNQ agonists increase the ΔF/F value. An antagonist performs vice versa, respectively.
Therefore, ‘fluorimetry EC50’ is a measure for the compound potency. The compound efficacy is mirrored by ‘fluorimetry % efficacy’ (‘% Efficacy’) and refers to the maximum response achievable by the test compound, i.e. the plateau effect. This drug's plateau effect is related to the plateau effect, which can be achieved by applying a saturated concentration of a reference compound, e.g. Retigabine (50 μM), in independent wells of the same experimental plate or series.
[…] CHO-K1 cells expressing KCNQ2/3 channels are cultivated adherently at 37° C., 5% CO2 and 95% humidity in cell culture bottles (e.g. 80 cm^2 TC flasks, Nunc) with DMEM-high glucose (Sigma Aldrich, D7777) including 10% FCS (PAN Biotech, e.g. 3302-P270521) or alternatively MEM Alpha Medium (1×, liquid, Invitrogen, #22571), 10% fetal calf serum (FCS) (Invitrogen, #10270-106, heat-inactivated) and the necessary selection antibiotics.
The cell number is determined using a CASY™ cell counter (TCC, Schärfe System). Depending on the optimal density for each individual cell line, 20,000-30,000 cells/well/100 μl are seeded onto 96-well Corning™ CellBIND™ assay plates (Flat Clear Bottom Black Polystyrene Microplates, #3340). Freshly seeded cells are then left to settle for one hour at room temperature, followed by incubation for 24 hours at 37° C., 5% CO2 and 95% humidity.
The voltage-sensitive fluorescent dye from the Membrane Potential Assay Kit (Red™ Bulk format part R8123 for FLIPR, MDS Analytical Technologies™) is prepared by dissolving the contents of one vessel Membrane Potential Assay Kit Red Component A in 200 ml of extracellular buffer (ES buffer, 120 mM NaCl, 1 mM KCl, 10 mM HEPES, 2 mM CaCl2, 2 mM MgCl2, 10 mM glucose; pH 7.4). After removal of the nutrient medium, the cells are washed once with 200 μl of ES buffer, then loaded for 45 min at room temperature in 100 μl of dye solution in the dark.
Fluorescence measurements are carried out in a BMG Labtech FLUOstar™, BMG Labtech NOVOstar™ or BMG Labtech POLARstar™ instrument (525 nm excitation, 560 nm emission, Bottom Read mode). After incubation with the dye, 50 μl of the test substances in the desired concentrations, or 50 μl of ES buffer for control purposes, are applied to the wells of the assay plate and incubated for 30 min at room temperature while being shielded from light. The fluorescence intensity of the dye is then measured for 5 min and the fluorescence value F1 of each well is thus determined at a given, constant time. 15 μl of a KCl solution are then added to each well (final concentration of potassium ions 92 mM). The change in fluorescence intensity is subsequently monitored until all the relevant values have been obtained (mainly 5-30 min). At a given time post KCl application, a fluorescence value F2 is determined, in this case at the time of the fluorescence peak.
For calculation, the fluorescence intensity F2 is corrected for the fluorescence intensity F1, and the activity (ΔF/F) of the target compound on the potassium channel is determined as follows:
In order to determine whether a substance has agonistic activity,
[formula] can be related to
[formula] of control wells.
[formula] is determined by adding to the well only the buffer solution instead of the test substance, determining the value F1K of the fluorescence intensity, adding the potassium ions as described above, and measuring a value F2K of the fluorescence intensity.

T1 sequence (O43526 whole entry): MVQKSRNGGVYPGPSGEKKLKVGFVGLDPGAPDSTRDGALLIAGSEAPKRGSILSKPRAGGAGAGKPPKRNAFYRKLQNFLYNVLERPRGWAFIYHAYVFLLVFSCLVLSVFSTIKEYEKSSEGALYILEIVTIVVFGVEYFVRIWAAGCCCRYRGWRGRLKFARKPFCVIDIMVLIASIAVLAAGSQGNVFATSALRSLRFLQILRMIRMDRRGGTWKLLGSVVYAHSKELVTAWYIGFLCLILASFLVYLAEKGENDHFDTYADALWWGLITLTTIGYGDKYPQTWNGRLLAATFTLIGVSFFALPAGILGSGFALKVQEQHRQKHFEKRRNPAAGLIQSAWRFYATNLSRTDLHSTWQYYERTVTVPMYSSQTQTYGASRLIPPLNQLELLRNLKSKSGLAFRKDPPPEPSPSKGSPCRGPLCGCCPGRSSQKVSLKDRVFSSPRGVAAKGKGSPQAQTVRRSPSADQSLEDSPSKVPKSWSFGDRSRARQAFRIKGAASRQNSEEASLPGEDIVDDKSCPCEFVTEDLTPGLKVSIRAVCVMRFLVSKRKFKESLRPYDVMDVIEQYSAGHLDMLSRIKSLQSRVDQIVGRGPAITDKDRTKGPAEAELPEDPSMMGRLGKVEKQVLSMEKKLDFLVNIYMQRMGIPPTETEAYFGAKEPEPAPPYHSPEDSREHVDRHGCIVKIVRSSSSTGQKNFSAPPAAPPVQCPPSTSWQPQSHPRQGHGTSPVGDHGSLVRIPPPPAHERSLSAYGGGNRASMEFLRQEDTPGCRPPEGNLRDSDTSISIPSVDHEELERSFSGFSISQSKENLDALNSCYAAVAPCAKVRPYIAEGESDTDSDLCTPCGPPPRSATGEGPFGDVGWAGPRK
T1 sequence (O43525 whole entry): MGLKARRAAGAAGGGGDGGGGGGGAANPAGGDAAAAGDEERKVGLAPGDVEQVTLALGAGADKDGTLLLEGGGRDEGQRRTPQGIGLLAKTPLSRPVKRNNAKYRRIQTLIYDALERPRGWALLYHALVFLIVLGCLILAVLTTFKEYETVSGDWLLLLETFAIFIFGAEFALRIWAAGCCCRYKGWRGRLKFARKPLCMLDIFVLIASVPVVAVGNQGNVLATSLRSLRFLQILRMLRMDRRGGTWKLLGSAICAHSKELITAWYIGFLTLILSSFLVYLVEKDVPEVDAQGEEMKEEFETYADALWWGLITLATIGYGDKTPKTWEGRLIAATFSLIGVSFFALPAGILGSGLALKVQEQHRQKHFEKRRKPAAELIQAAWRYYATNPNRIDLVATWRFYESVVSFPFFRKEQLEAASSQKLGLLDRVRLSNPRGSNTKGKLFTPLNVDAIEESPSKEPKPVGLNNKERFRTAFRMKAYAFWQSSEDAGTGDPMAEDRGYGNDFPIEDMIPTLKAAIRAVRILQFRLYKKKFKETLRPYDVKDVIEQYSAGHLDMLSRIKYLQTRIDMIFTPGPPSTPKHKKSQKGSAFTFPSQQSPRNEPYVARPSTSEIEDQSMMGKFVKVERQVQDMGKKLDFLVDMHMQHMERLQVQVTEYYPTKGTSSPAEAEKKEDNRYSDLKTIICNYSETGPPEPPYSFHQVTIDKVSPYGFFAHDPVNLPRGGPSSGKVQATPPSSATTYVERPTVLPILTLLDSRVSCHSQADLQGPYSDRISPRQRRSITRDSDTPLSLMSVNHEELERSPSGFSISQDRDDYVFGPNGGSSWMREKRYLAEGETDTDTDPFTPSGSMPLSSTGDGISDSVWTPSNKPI

With `CCOc1nc(N2CCOCC2)cc(C)c1C(=O)NCc1cc(F)cc(F)c1` [Example 90, N-[(3,5-Difluoro-phenyl)-methyl]-2-ethoxy-4-methyl-6-morpholin-4-yl-pyridine-3-carboxylic acid amide], the Emax was found to be 134% and the EC50 was 122 nM.

As for `CCSc1nc(N2CCCCC2)cc(C)c1C(=O)NCc1cccc(F)c1` [Example 32, 2-Ethylsulfanyl-N-[(3-fluorophenyl)-methyl]-4-methyl-6-piperidin-1-yl-pyridine-3-carboxylic acid amide], the Emax amounted to 166% and the EC50 turned out to be 132 nM.

For `Cc1cc(N2CCOCC2)nc(C2CC2)c1C(=O)NCc1ccc(C(F)(F)F)cc1` [Example 334, 2-Cyclopropyl-4-methyl-6-morpholin-4-yl-N-[[4-(trifluoromethyl)-phenyl]-methyl]-pyridine-3-carboxylic acid amide], the Emax worked out at 124% and the EC50 was determined as 96 nM.

On to `CCSc1nc(N(C)CCOC)cc(C)c1C(=O)NCCCC(C)(C)C` [Example 211, N-(4,4-Dimethyl-pentyl)-2-ethylsulfanyl-6-(2-methoxy-ethyl-methyl-amino)-4-methyl-pyridine-3-carboxylic acid amide], for which the Emax is 225% and the EC50 amounted to 143 nM.

As for `CCSc1nc(N2CCOCC2)cc(C)c1C(=O)NCc1ccccc1C(F)(F)F` [Example 51, 2-Ethylsulfanyl-4-methyl-6-morpholin-4-yl-N-[[2-(trifluoromethyl)-phenyl]methyl]-pyridine-3-carboxylic acid amide], the Emax was -84% and the EC50 came out at 541 nM.

Take `Cc1cc(N2CCOCC2)nc(C(C)C)c1C(=O)NCc1ccc(Cl)cc1` [Example 327, N-[(4-Chlorophenyl)-methyl]-2-isopropyl-4-methyl-6-morpholin-4-yl-pyridine-3-carboxylic acid amide]: the Emax turned out to be 173% and the EC50 turned out to be 50 nM.

Turning to `CCSc1nc(N(C)C2CCOC2)cc(C)c1C(=O)NCc1cccc(F)c1` (centres unmarked) [Example 301, 2-Ethylsulfanyl-N-[(3-fluorophenyl)-methyl]-4-methyl-6-(methyl-tetrahydro-furan-3-yl-amino)-pyridine-3-carboxylic acid amide], the Emax stood at 132% and the EC50 turned out to be 767 nM.

On to `CCSc1nc(N2CCOCC2)cc(C)c1C(=O)NCc1ccccc1-c1ccccc1` [Example 50, 2-Ethylsulfanyl-4-methyl-6-morpholin-4-yl-N-[(2-phenyl-phenyl)-methyl]-pyridine-3-carboxylic acid amide], for which the Emax was -97% and the EC50 amounted to 63 nM.

For the compound `CCSc1nc(N(C)C(C)=O)cc(C)c1C(=O)NCc1cccc(F)c1` [Example 123, 6-(Acetyl-methyl-amino)-2-ethylsulfanyl-N-[(3-fluorophenyl)-methyl]-4-methyl-pyridine-3-carboxylic acid amide], the Emax turned out to be 67%.

On to `CCSc1nc(N2CCOC[C@H]2COC)cc(C)c1C(=O)NCc1ccc(Cl)cc1` [Example 256, N-[(4-Chlorophenyl)-methyl]-2-ethylsulfanyl-6-[(3R)-3-(methoxymethyl)-morpholin-4-yl]-4-methyl-pyridine-3-carboxylic acid amide], for which the Emax amounted to 221% and the EC50 is 101 nM.

For the compound `Cc1cc(N2CCOCC2)nc(C(C)C)c1C(=O)NCCC(O)C(F)(F)F` (racemic) [Example X6, 2-Isopropyl-4-methyl-6-morpholin-4-yl-N-(4,4,4-trifluoro-3-hydroxy-butyl)-pyridine-3-carboxylic acid amide], the EC50 is 1990 nM.

As for `CCN(C)c1nc(N2CCOCC2)cc(C)c1C(=O)NCc1ccc(F)c(F)c1` [Example 203, N-[(3,4-Difluoro-phenyl)-methyl]-2-(ethyl-methyl-amino)-4-methyl-6-morpholin-4-yl-pyridine-3-carboxylic acid amide], the Emax was found to be 220% and the EC50 stood at 219 nM.

Turning to `CCCCSc1nc(N2CCOCC2)cc(C)c1C(=O)NCc1cccc(F)c1` [Example 57, 2-(Butylsulfanyl)-N-[(3-fluorophenyl)-methyl]-4-methyl-6-morpholin-4-yl-pyridine-3-carboxylic acid amide], the Emax stood at 169% and the EC50 came to 47 nM.

Turning to `CCSc1nc(N2CCOCC2)cc(C)c1C(=O)NCc1cccc(C#N)c1` [Example 102, N-[(3-Cyano-phenyl)-methyl]-2-ethylsulfanyl-4-methyl-6-morpholin-4-yl-pyridine-3-carboxylic acid amide], the Emax worked out at 138% and the EC50 came out at 1220 nM.

As to `CCSc1nc(N2CCOCC2)cc(C)c1C(=O)NCc1ccc([N+](=O)[O-])cc1` [Example 281, 2-Ethylsulfanyl-4-methyl-6-morpholin-4-yl-N-[(4-nitrophenyl)-methyl]-pyridine-3-carboxylic acid amide], the Emax was 109% and the EC50 is 311 nM.

Take `Cc1cc(N2CCOCC2)nc(N(C)C)c1C(=O)NCc1ccc(F)cc1` [Example 205, 2-Dimethylamino-N-[(4-fluorophenyl)-methyl]-4-methyl-6-morpholin-4-yl-pyridine-3-carboxylic acid amide]: the Emax was 205% and the EC50 worked out at 898 nM.

Take `Cc1cc(N2CCOCC2)nc(OCCN(C)C)c1C(=O)NCc1ccc(Cl)cc1` [Example 283, N-[(4-Chlorophenyl)-methyl]-2-(2-dimethylaminoethyloxy)-4-methyl-6-morpholin-4-yl-pyridine-3-carboxylic acid amide]: the Emax was 22%.

As to `Cc1cc(N2CCOCC2)nc(C(C)C)c1C(=O)NCc1ccc(F)cc1` [Example 309, N-[(4-Fluorophenyl)-methyl]-2-isopropyl-4-methyl-6-morpholin-4-yl-pyridine-3-carboxylic acid amide], the Emax was determined as 168% and the EC50 worked out at 71 nM.

As to `CCSc1nc(N(C)C2CCC(OC)CC2)cc(C)c1C(=O)NCc1cccc(F)c1` (centres unmarked) [Example 259, 2-Ethylsulfanyl-N-[(3-fluorophenyl)-methyl]-6-[(4-methoxy-cyclohexyl)-methyl-amino]-4-methyl-pyridine-3-carboxylic acid amide], the Emax was 133% and the EC50 is 298 nM.

For the compound `CCN(C)c1nc(N2CCOCC2)cc(C)c1C(=O)NCc1cccc(F)c1` [Example 127, 2-(Ethyl-methyl-amino)-N-[(3-fluorophenyl)-methyl]-4-methyl-6-morpholin-4-yl-pyridine-3-carboxylic acid amide], the Emax stood at 238% and the EC50 is 385 nM.

In the case of `COC[C@H]1COCCN1c1cc(C)c(C(=O)NCc2ccc(Cl)cc2)c(C(C)C)n1` [Example 277, N-[(4-Chlorophenyl)-methyl]-2-isopropyl-6-[(3S)-3-(methoxymethyl)-morpholin-4-yl]-4-methyl-pyridine-3-carboxylic acid amide], the Emax was 129% and the EC50 came to 17 nM.

Take `Cc1cc(N2CCOCC2)nc(N2CCCC2)c1C(=O)NCc1cccc(F)c1` [Example 24, N-[(3-Fluorophenyl)-methyl]-4-methyl-6-morpholin-4-yl-2-pyrrolidin-1-yl-pyridine-3-carboxylic acid amide]: the Emax was found to be 210% and the EC50 worked out at 308 nM.

For the origin of these results see patent publication US9168259B2 (GRÜNENTHAL GMBH, priority 2010, dated 2015).
